Read-outs that look alike come from different tables or passages of the source.
Biological target: T1, Lin28 (Homo sapiens, UniProt Q9H9Z2)
T1 construct: gene LIN28A; recombinant, N-terminal GST tag; multimeric on pre-let-7
T1 sequence (Q9H9Z2 1-209): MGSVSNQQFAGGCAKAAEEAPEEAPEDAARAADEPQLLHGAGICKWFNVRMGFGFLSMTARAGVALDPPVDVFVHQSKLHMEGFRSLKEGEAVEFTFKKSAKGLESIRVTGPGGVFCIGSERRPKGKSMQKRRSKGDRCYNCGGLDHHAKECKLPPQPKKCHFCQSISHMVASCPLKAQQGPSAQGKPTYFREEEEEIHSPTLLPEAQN
Assay: fluorescence polarization displacement of fluorescein-labelled tpre-let-7g RNA
Type: binding

SMILES | IC50 [µM] | IC50 (read-out: IC50) [µM]
NC(Cc1cc(O)c(O)cc1O)C(=O)O (racemic) [compound 10, 6-hydroxy-DL-DOPA] | 7.05 ± 0.13 | 
Nc1c(S(=O)(=O)O)cc(Nc2ccc(S(=O)(=O)O)c(Nc3nc(Cl)nc(Cl)n3)c2)c2c1C(=O)c1ccccc1C2=O [11b, Reactive Blue 4] |  | 10.75 ± 0.1
O=C(O)C1=CC(=C(c2ccc(O)c(C(=O)O)c2)c2ccc(O)c(C(=O)O)c2)C=CC1=O [compound 4, Aurintricarboxylic acid] |  | 1.18 ± 0.23
O=C(O)c1ccc2nc3c4c(O)ccc(O)c4c(=O)c(Cl)c-3oc2c1 [compound 14, SB/ZW/0065] |  | 4.71 ± 0.16

Reference: paper PMC5433426, “Identification of small molecule inhibitors of the Lin28-mediated blockage of pre-let-7g processing” (Organic & Biomolecular Chemistry, 2016)
